Measured values as given in patent publication US9139587B2, “N1-pyrazolospiroketone acetyl-CoA carboxylase inhibitors” (Pfizer Inc., priority 2009, dated 2015).

Key:
[1] = biological target: T1, recombinant human ACC1 (rhACC1) (Homo sapiens, UniProt Q13085, DEL44-44); experiment: recombinant hACC1 Transcreener assay (direct inhibition of ACC1 activity); assay type: biochemical; conditions: Transcreener ADP detection FP assay, 50 μM ATP, 30 μM acetyl-CoA, 120 min at 25° C.
T1 construct: recombinant baculovirus containing full length human ACC1 cDNA; made in house; host or cells: SF9 insect cells (baculovirus)
Protocol: For example direct inhibition of ACC activity, for the compound of Formula (1) was determined using preparations of recombinant human ACC1 (rhACC1) and recombinant human ACC2 (rhACC2). Representative sequences of the recombinant human ACC1 and ACC2 that can be used in the assay are provided in FIG. 1 (SEQ ID NO. 1) and FIG. 2 (SEQ. ID NO. 2), respectively. Preparation of rhACC1. Two liters of SF9 cells, infected with recombinant baculovirus containing full length human ACC1 cDNA, were suspended in ice-cold lysis buffer (25 mM Tris, pH 7.5; 150 mM NaCl; 10% glycerol; 5 mM imidazole (EMD Bioscience; Gibbstown, N.J.); 2 mM TCEP (BioVectra; Charlottetown, Canada); Benzonase nuclease (10000 U/100 g cell paste; Novagen; Madison, Wis.); EDTA-free protease inhibitor cocktail (1 tab/50 mL; Roche Diagnostics; Mannheim, Germany). Cells were lysed by 3 cycles of freeze-thaw and centrifuged at 40,000×g for 40 minutes (4° C.). Supernatant was directly loaded onto a HisTrap FF crude column (GE Healthcare; Piscataway, N.J.) and eluted with an imidazole gradient up to 0.5 M over 20 column volumes (CV). ACC1-containing fractions were pooled and diluted 1:5 with 25 mM Tris, pH 7.5, 2 mM TCEP, 10% glycerol and direct loaded onto a CaptoQ (GE Healthcare) column and eluted with an NaCl gradient up to 1 M over 20 CV's. Phosphate groups were removed from purified ACC1 by incubation with lambda phosphatase (100 U/10 μM target protein; New England Biolabs; Beverly, Mass.) for 14 hours at 4° C.; okadaic acid was added (1 μM final concentration; Roche Diagnostics) to inhibit the phosphatase. Purified ACC1 was exchanged into 25 mM Tris, pH 7.5, 2 mM TCEP, 10% glycerol, 0.5 M NaCl by 6 hour dialysis at 4° C. Aliquots were prepared and frozen at −80° C. […] The final conditions for the assay were 50 mM HEPES, pH 7.2, 10 mM MgCl2, 7.5 mM tripotassium citrate, 2 mM DTT, 0.1 mg/mL BSA, 30 μM acetyl-CoA, 50 μM ATP, and 10 mM KHCO3 Typically, a 10 μl reaction was run for 120 min at 25° C., and 10 μl of Transcreener stop and detect buffer was added and the combination incubated at room temp for an additional 1 hour. The data was acquired on a Envision Fluorescence reader (Perkinelmer) using a 620 excitation Cy5 FP general dual mirror, 620 excitation Cy5 FP filter, 688 emission (S) and a 688 (P) emission filter.

[2] = biological target: T2, recombinant human ACC2 (rhACC2) (Homo sapiens, UniProt O00763, V2141I); experiment: recombinant hACC2 Transcreener assay (direct inhibition of ACC2 activity); assay type: biochemical; conditions: Transcreener ADP detection FP assay, 50 μM ATP, 30 μM acetyl-CoA, 50 min at 25° C.
T2 construct: a full length Cytomax clone of ACC2 was purchased from Cambridge Bioscience Limited; made in house; host or cells: CHO cells (tetracycline-induced, pcDNA5 FRT TO-TOPO)
Protocol: For example direct inhibition of ACC activity, for the compound of Formula (1) was determined using preparations of recombinant human ACC1 (rhACC1) and recombinant human ACC2 (rhACC2). Representative sequences of the recombinant human ACC1 and ACC2 that can be used in the assay are provided in FIG. 1 (SEQ ID NO. 1) and FIG. 2 (SEQ. ID NO. 2), respectively.
[3] Preparation of rhACC2. Human ACC2 inhibition was measured using purified recombinant human ACC2 (hrACC2). Briefly, a full length Cytomax clone of ACC2 was purchased from Cambridge Bioscience Limited and was sequenced and subcloned into PcDNA5 FRT TO-TOPO (Invitrogen, Carlsbad, Calif.). The ACC2 was expressed in CHO cells by tetracycline induction and harvested in 5 liters of DMEM/F12 with glutamine, biotin, hygromycin and blasticidin with 1 μg/mL tetracycline (Invitrogen, Carlsbad, Calif.). The conditioned medium containing ACC2 was then applied to a Softlink Soft Release Avidin column (Promega, Madison, Wis.) and eluted with 5 mM biotin. 4 mgs of ACC2 were eluted at a concentration of 0.05 mg/mL (determined by A280) with an estimated purity of 95% ([…]). The purified ACC2 was dialyzed in 50 mM Tris, 200 mM NaCl, 4 mM DTT, 2 mM EDTA, and 5% glycerol. The pooled protein was frozen and stored at −80° C., with no loss of activity upon thawing. For measurement of ACC2 activity and assessment of ACC2 inhibition, test compounds were dissolved in DMSO and added to the rhACC2 enzyme as a 5× stock with a final DMSO concentration of 1%.
[4] Measurement of human ACC2 inhibition. hACC2 was assayed in a Costar #3676 (Costar, Cambridge, Mass.) 384-well plate using the Transcreener ADP detection FP assay kit (Bellbrook Labs, Madison, Wisconsin) using the manufacturer's recommended conditions for a 50 uM ATP reaction. The final conditions for the assay were 50 mM HEPES, pH 7.2, 5 mM MgCl2, 5 mM tripotassium citrate, 2 mM DTT, 0.1 mg/mL BSA, 30 μM acetyl-CoA, 50 μM ATP, and 8 mM KHCO3 Typically, a 10 μl reaction was run for 50 min at 25° C., and 10 μl of Transcreener stop and detect buffer was added and the combination incubated at room temp for an additional 1 hour. The data was acquired on an Envision Fluorescence reader (Perkinelmer) using a 620 excitation Cy5 FP general dual mirror, 620 excitation Cy5 FP filter, 688 emission (S) and a 688 (P) emission filter.

T2 sequence (O00763 whole entry V2141I): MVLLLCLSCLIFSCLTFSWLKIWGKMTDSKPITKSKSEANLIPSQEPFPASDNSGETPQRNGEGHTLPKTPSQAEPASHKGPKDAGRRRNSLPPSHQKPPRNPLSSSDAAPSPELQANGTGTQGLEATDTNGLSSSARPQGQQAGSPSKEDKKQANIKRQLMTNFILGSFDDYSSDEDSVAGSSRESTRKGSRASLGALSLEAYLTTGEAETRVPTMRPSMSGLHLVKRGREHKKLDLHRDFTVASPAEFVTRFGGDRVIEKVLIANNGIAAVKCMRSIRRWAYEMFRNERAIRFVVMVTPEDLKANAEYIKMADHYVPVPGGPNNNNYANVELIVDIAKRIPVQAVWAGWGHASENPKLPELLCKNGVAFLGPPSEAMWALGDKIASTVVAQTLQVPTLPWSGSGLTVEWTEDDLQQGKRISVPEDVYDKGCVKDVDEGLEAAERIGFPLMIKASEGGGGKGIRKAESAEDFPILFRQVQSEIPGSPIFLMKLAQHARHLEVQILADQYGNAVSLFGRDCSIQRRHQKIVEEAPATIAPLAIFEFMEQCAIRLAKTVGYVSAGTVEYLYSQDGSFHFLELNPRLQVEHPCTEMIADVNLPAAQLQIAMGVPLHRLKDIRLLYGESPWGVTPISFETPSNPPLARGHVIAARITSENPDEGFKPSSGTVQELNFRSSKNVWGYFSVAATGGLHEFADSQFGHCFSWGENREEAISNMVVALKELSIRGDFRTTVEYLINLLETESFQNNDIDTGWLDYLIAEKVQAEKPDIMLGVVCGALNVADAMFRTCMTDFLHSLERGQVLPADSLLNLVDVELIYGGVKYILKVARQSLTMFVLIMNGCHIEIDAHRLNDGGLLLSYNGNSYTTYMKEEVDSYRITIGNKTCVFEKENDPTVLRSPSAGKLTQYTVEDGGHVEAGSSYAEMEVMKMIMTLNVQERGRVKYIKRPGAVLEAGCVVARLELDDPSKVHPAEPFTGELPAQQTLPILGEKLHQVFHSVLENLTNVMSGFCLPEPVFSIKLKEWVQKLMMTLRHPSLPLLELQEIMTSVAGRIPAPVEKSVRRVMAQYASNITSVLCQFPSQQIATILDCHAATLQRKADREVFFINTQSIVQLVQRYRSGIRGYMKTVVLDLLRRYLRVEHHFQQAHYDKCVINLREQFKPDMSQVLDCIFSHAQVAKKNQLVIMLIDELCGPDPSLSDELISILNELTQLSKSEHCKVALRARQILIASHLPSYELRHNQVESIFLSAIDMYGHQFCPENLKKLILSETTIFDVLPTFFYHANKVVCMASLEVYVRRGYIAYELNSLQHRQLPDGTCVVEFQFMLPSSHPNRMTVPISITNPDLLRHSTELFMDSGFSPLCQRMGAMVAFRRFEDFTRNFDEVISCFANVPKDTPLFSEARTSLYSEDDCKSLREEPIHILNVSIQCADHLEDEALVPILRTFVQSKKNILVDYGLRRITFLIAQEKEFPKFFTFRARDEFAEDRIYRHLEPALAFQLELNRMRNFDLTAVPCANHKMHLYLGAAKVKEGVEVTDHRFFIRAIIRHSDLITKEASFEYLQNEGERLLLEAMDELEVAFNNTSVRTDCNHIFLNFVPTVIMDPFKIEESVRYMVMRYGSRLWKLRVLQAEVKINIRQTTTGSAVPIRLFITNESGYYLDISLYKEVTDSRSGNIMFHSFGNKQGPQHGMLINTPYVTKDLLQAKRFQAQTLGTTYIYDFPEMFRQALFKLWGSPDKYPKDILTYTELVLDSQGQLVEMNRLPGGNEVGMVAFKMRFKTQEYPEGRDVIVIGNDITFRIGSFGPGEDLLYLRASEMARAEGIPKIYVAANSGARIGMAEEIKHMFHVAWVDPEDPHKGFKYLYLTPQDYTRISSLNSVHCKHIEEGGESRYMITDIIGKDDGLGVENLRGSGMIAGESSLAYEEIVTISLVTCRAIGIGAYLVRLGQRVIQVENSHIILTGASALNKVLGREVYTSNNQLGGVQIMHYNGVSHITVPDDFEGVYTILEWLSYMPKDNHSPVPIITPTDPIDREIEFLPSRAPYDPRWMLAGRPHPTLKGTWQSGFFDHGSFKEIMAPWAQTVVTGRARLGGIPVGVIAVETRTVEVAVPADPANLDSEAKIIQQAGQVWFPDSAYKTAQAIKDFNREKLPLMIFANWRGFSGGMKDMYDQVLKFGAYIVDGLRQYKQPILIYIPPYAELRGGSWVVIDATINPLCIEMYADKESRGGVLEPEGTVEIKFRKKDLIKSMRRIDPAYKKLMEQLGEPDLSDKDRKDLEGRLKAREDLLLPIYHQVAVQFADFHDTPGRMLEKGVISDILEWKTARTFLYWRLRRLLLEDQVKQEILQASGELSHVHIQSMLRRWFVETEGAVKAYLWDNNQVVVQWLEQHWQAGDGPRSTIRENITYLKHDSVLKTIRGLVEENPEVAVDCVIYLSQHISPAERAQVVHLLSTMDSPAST

IC50 [1]	IC50 [2]	SMILES
0.399 µM	0.125 µM	CC(C)n1ncc2c1C(=O)C(C)C1(CCN(C(=O)c3ccc4[nH]ncc4c3)CC1)C2 (racemic) [Example 4A-1, 1′-(1H-indazole-5-carbonyl)-1-isopropyl-6-methyl-4,6-dihydrospiro[indazole-5,4′-piperidin]-7(1H)-one]
4.48 µM	0.866 µM	CC(C)n1ncc2c1C(=O)C(C)C1(CCN(C(=O)c3ccc4[nH]ncc4c3)CC1)C2 (single isomer, unassigned; (+)) [Example 5A-1, (+)-1′-(1H-indazole-5-carbonyl)-1-isopropyl-6-methyl-4,6-dihydrospiro[indazole-5,4′-piperidin]-7(1H)-one]
0.175 µM	0.0807 µM	CC(C)n1ncc2c1C(=O)C(C)C1(CCN(C(=O)c3ccc4[nH]ncc4c3)CC1)C2 (single isomer, unassigned; (-)) [Example 5A-2, (−)-1′-(1H-indazole-5-carbonyl)-1-isopropyl-6-methyl-4,6-dihydrospiro[indazole-5,4′-piperidin]-7(1H)-one]
0.267 µM	0.068 µM	Cc1cc(C(=O)N2CCC3(CC2)CC(=O)c2c(cnn2C(C)C)C3)ccc1Cl [Example 1A-1, 1-isopropyl-1′-(4-chloro-3-methylbenzoyl)-4,6-dihydrospiro[indazole-5,4′-piperidin]-7(1H)-one]
0.444 µM	0.0623 µM	Cc1cc(C(=O)N2CCC3(CC2)CC(=O)c2c(cnn2C(C)(C)C)C3)ccc1Cl [Example 1A-2]
0.646 µM	0.155 µM	Cc1cc(C(=O)N2CCC3(CC2)CC(=O)c2c(cnn2C2CCC2)C3)ccc1Cl [Example 1A-3]
2.98 µM	0.719 µM	Cc1cc(C(=O)N2CCC3(CC2)CC(=O)c2c(cnn2Cc2ccccc2)C3)ccc1Cl [Example 1A-4]
0.8 µM	0.127 µM	Cc1cc(C(=O)N2CCC3(CC2)CC(=O)c2c(cnn2C2CCOC2)C3)ccc1Cl (centres unmarked) [Example 1A-5]
0.282 µM	0.0697 µM	CC(C)n1ncc2c1C(=O)CC1(CCN(C(=O)c3cnc4[nH]ncc4c3)CC1)C2 [Example 2A-1, 1-Isopropyl-1′-(1H-pyrazolo[3,4-b]pyridine-5-carbonyl)-4,6-dihydrospiro[indazole-5,4′-piperidin]-7(1H)-one]
8.3 µM	3.57 µM	Cc1cc(C(=O)N2CCC3(CC2)CC(=O)c2c(cnn2CC2CCCO2)C3)ccc1Cl (centres unmarked) [Example 2A-2]
2.72 µM	0.68 µM	COCC(C)n1ncc2c1C(=O)CC1(CCN(C(=O)c3ccc(Cl)c(C)c3)CC1)C2 (centres unmarked) [Example 2A-3]
8.73 µM	2.53 µM	Cc1cc(C(=O)N2CCC3(CC2)CC(=O)c2c(cnn2C)C3)ccc1Cl [Example 2A-4]
1.22 µM	0.481 µM	Cc1cc(C(=O)N2CCC3(CC2)CC(=O)c2c(cnn2CC(C)C)C3)ccc1Cl [Example 2A-5]
0.64 µM	0.0888 µM	Cc1cc(C(=O)N2CCC3(CC2)CC(=O)c2c(cnn2C(C)c2ccccc2)C3)ccc1Cl (centres unmarked) [Example 2A-6]
4.34 µM	0.965 µM	CCn1ncc2c1C(=O)CC1(CCN(C(=O)c3ccc(Cl)c(C)c3)CC1)C2 [Example 2A-7]
16 µM	4.89 µM	COCCn1ncc2c1C(=O)CC1(CCN(C(=O)c3ccc(Cl)c(C)c3)CC1)C2 [Example 2A-8]
4.26 µM	1.85 µM	CCCn1ncc2c1C(=O)CC1(CCN(C(=O)c3ccc(Cl)c(C)c3)CC1)C2 [Example 2A-9]

IC50 [1]	IC50 [2]	SMILES
0.188 µM	0.0292 µM	CC(C)n1ncc2c1C(=O)CC1(CCN(C(=O)c3ccc4cnn(C)c4c3)CC1)C2 [Example 2A-10]
0.261 µM	0.0335 µM	CC(C)n1ncc2c1C(=O)CC1(CCN(C(=O)c3ccc4c(cnn4C)c3)CC1)C2 [Example 2A-11]
0.0953 µM	0.028 µM	CC(C)n1ncc2c1C(=O)CC1(CCN(C(=O)c3ccc4cc[nH]c(=O)c4c3)CC1)C2 [Example 2A-13]
0.172 µM	0.027 µM	CC(C)n1ncc2c1C(=O)CC1(CCN(C(=O)c3ccc4c(=O)[nH]ccc4c3)CC1)C2 [Example 2A-14]
2.03 µM	0.775 µM	Cc1ncc(C(=O)N2CCC3(CC2)CC(=O)c2c(cnn2C(C)C)C3)c(N)n1 [Example 2A-15]
0.0469 µM	0.0136 µM	CC(C)n1ncc2c1C(=O)CC1(CCN(C(=O)c3cc(Cl)c4[nH]ncc4c3)CC1)C2 [Example 2A-16]
1.01 µM	0.458 µM	Cc1cc(N(C)C)ncc1C(=O)N1CCC2(CC1)CC(=O)c1c(cnn1C(C)C)C2 [Example 2A-18]
0.0574 µM	0.0221 µM	CC(C)n1ncc2c1C(=O)CC1(CCN(C(=O)c3cnc4cc[nH]c4c3)CC1)C2 [Example 2A-19]
0.121 µM	0.093 µM	CC(C)n1ncc2c1C(=O)CC1(CCN(C(=O)c3cc4cccnc4[nH]3)CC1)C2 [Example 2A-20]
0.0933 µM	0.0327 µM	Cc1nc2ccc(C(=O)N3CCC4(CC3)CC(=O)c3c(cnn3C(C)(C)C)C4)cc2[nH]1 [Example 2A-21]
1.89 µM	0.334 µM	CC(C)(C)n1ncc2c1C(=O)CC1(CCN(C(=O)c3ccc4c(=O)[nH]ccc4c3)CC1)C2 [Example 2A-22]
0.0323 µM	0.0233 µM	CC(C)(C)n1ncc2c1C(=O)CC1(CCN(C(=O)c3cnc4[nH]ccc4c3)CC1)C2 [Example 2A-23]
0.0307 µM	0.0158 µM	CC(C)(C)n1ncc2c1C(=O)CC1(CCN(C(=O)c3cnc4cc[nH]c4c3)CC1)C2 [Example 2A-24]
0.0695 µM	0.0227 µM	CC(C)(C)n1ncc2c1C(=O)CC1(CCN(C(=O)c3cc(Cl)c4[nH]ncc4c3)CC1)C2 [Example 2A-25]
0.308 µM	0.0918 µM	CC(C)n1ncc2c1C(=O)CC1(CCN(C(=O)c3ccc4c(c3)CC(=O)N4)CC1)C2 [Example 2A-27]
0.0478 µM	0.017 µM	CC(C)(C)n1ncc2c1C(=O)CC1(CCN(C(=O)c3ccc4[nH]ncc4c3)CC1)C2 [Example 2A-28]
0.0241 µM	0.00981 µM	CC(C)(C)n1ncc2c1C(=O)CC1(CCN(C(=O)c3ccc4[nH]c(=O)[nH]c4c3)CC1)C2 [Example 2A-29]
